Experimental data as given in patent US20110312974A1, “HETEROARYL ANTAGONISTS OF PROSTAGLANDIN D2 RECEPTORS” (AMIRA PHARMACEUTICALS, INC., priority 2008, published 2011).

Each molecule was assayed against T1, human DP2 receptor (Homo sapiens, UniProt Q9Y5Y4) (assay: DP2/CRTH2 radioligand binding assay using [3H]PGD2). Conditions: hDP2 (CRTH2) binding assay; membranes of HEK293 cells expressing recombinant human DP2, 1 nM [3H]PGD2.
T1 construct: expressed in transfected cells; membrane preparation
T1 sequence (Q9Y5Y4 1-395): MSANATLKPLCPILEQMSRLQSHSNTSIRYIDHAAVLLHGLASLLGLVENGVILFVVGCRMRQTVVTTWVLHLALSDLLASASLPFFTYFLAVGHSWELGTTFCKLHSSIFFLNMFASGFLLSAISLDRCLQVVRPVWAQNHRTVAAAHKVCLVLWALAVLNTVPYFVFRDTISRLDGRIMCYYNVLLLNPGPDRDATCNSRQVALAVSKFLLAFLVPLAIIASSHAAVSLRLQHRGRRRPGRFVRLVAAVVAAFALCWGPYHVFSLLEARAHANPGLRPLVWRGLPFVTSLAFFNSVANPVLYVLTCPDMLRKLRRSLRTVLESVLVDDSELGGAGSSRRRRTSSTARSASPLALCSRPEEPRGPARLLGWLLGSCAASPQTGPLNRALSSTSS
Experimental: The ability of a compound to bind to the human DP2 receptor is assessed via a radioligand binding assay using [^3H]PGD2. HEK293 cells stably expressing recombinant human DP2 are resuspended in 10 mM Hepes, 7.4 containing 1 mM DTT, lysed and centrifuged at 75,000×g to pellet the membranes. The membranes are resuspended in 10 mM Hepes, 7.4 containing 1 mM DTT and 10% glycerol to approximately 5 mg protein/ml. Membranes (2-10 μg protein/well) are incubated in 96-well plates with 1 nM [^3H]PGD2 and test compound in Assay Buffer (50 mM Hepes, 10 mM MnCl2, 1 mM EDTA, plus or minus 0.2% human serum albumin, pH 7.4) for 60 minutes at room temperature. The reactions are terminated by rapid filtration through Whatman GF/C glass fibre filter plates. The filter plates were pre-soaked in 0.33% polythylenimine for 30 minutes at room temperature then washed in Wash Buffer (50 mM Hepes, 0.5 M NaCl pH 7.4) prior to harvesting. After harvesting, the filter plates are washed 3 times with 1 ml cold Wash Buffer then dried. Scintillant is then added to the plates and the radioactivity retained on the filters is determined on a Packard TopCount (Perkin Elmer). Specific binding is determined as total radioactive binding minus non-specific binding in the presence of 10 μM PGD2. IC50s were determined using GraphPad prism analysis of drug titration curves.

SMILES	IC50
O=C(O)Cc1cncc(-c2ccc(C(F)(F)F)cc2CN(CCc2ccncc2)C(=O)C2CC2)c1 [Compound 1-66, [5-(2-{[N-Cyclopropanecarbonyl-N-(2-pyridin-4-yl-ethyl)-amino]-methyl}-4-trifluoromethyl-phenyl)-pyridin-3-yl]-acetic acid]	> 1000 nM
CCN(Cc1cc(C(F)(F)F)ccc1-c1cc(CC(=O)O)cnc1OCc1ccccc1)C(=O)C1CC1 [Compound 1-68, (6-Benzyloxy-5-{2-[(N-cyclopropanecarbonyl-N-ethyl-amino)-methyl]-4-trifluoromethyl-phenyl}-pyridin-3-yl)-acetic acid]	< 300 nM
CCN(Cc1cc(C(F)(F)F)ccc1-c1cc(CC(=O)O)cnc1OCC1CC1)C(=O)C1CC1 [Compound 1-69, (5-{2-[(N-Cyclopropanecarbonyl-N-ethyl-amino)-methyl]-4-trifluoromethyl-phenyl}-6-cyclopropylmethoxy-pyridin-3-yl)-acetic acid]	< 300 nM
CCN(Cc1cc(C(F)(F)F)ccc1-c1cc(CC(=O)O)cnc1OCc1csc(C)n1)C(=O)C1CC1 [Compound 1-70, [5-{2-[(N-Cyclopropanecarbonyl-N-ethyl-amino)-methyl]-4-trifluoromethyl-phenyl}-6-(2-methyl-thiazol-4-ylmethoxy)-pyridin-3-yl]-acetic acid]	< 300 nM
CCN(Cc1cc(C(F)(F)F)ccc1-c1cc(CC(=O)O)cnc1-c1ccccc1)C(=O)C1CC1 [Compound 1-76, (5-{2-[(N-Cyclopropanecarbonyl-N-ethyl-amino)-methyl]-4-trifluoromethyl-phenyl}-6-phenyl-pyridin-3-yl)-acetic acid]	> 1000 nM
CCN(Cc1cc(C(F)(F)F)ccc1-c1cncc(CC(=O)O)c1)S(=O)(=O)c1cccc2c(N(C)C)cccc12 [Compound 1-77, [5-(2-{[N-(5-Dimethylamino-naphthalene-1-sulfonyl)-N-ethyl-amino]-methyl}-4-trifluoromethyl-phenyl)-pyridin-3-yl]-acetic acid]	< 300 nM
CCNCc1cc(C(F)(F)F)ccc1-c1cncc(CC(=O)O)c1 [Compound 1-78, [5-(2-Ethylaminomethyl-4-trifluoromethyl-phenyl)-pyridin-3-yl]-acetic acid]	> 1000 nM
C[C@H]1[C@@H](c2ccccc2)OC(=O)N1Cc1cc(C(F)(F)F)ccc1-c1cncc(CC(=O)O)c1 [Compound 2-1, {5-[2-((4S,5R)-4-Methyl-2-oxo-5-phenyl-oxazolidin-3-ylmethyl)-4-trifluoromethyl-phenyl]-pyridin-3-yl}-acetic acid]	< 300 nM

Continued, values first:

IC50	SMILES
< 300 nM	CCN(Cc1cc(C(F)(F)F)ccc1-c1cnn(CC(=O)O)c1)C(=O)C1CC1 [Compound 3-1, (4-{2-[(N-Cyclopropanecarbonyl-N-ethyl-amino)-methyl]-4-trifluoromethyl-phenyl}-pyrazol-1-yl)-acetic acid]
> 1000 nM	CCN(Cc1cc(C(F)(F)F)ccc1-c1c(C)nn(CC(=O)O)c1C)C(=O)C1CC1 [Compound 3-2, (4-{2-[(N-Cyclopropanecarbonyl-N-ethyl-amino)-methyl]-4-trifluoromethyl-phenyl}-3,5-dimethyl-pyrazol-1-yl)-acetic acid]
< 300 nM	Cc1nn(CC(=O)O)c(C)c1-c1ccc(C(F)(F)F)cc1CN(Cc1ccccc1)C(=O)C1CC1 [Compound 3-3, (4-{2-[(N-Benzyl-N-cyclopropanecarbonyl-amino)-methyl]-4-trifluoromethyl-phenyl}-3,5-dimethyl-pyrazol-1-yl)-acetic acid]
